This experiment has as its system A2780. In words: Anticancer activity against human A2780 cells assessed as inhibition of cell growth measured after 48 hrs by MTT assay. The format is functional, cell-based. The note with it: A2780, 48 h.

A word on the IC50: it is the concentration needed to halve the response being measured. Regarding `O=C1CCCC[C@H]1[C@@H](C[N+](=O)[O-])c1ccccc1`, the IC50 was greater than 100 µM. For the molecule `O=C1CCCC[C@H]1[C@H](c1ccccc1)C(F)[N+](=O)[O-]` (some centres not stated), the IC50 was found to be 89 µM.
